# Measurements reported in patent US20130023485A1, “PARENTERAL FORMULATIONS OF PEPTIDES FOR THE TREATMENT OF SYSTEMATIC LUPUS ERYTHEMATOSUS” (Teva Pharmaceutical Industries, Ltd., priority 2003, published 2013).
# Tests used:
# LN cells = assay: TGF-β secretion by cultured LN cells of immunized and treated mice (ELISA); format: in vivo, BALB/c mice; settings: all Compound 1 treatment groups (25-200 μg/mouse)
# Experimental: A group of 20 mice were immunized with 50 μg/mouse of Compound 1 RS. The immunized mice were allocated to five treatment groups as follows: placebo, 25, 50, 100 and 200 μg/mouse of Compound 1 DP (subcutaneous administration). Ten days post immunization and treatment, LN was extracted and single cell suspension was prepared. The in-vitro secretion of IFN-γ and TGF-β by the cultured cells in response to activation with several concentrations of Compound 1 RS was then measured. [table] […] Secretion of IFN-γ and TGF-β, as indication of cellular response, were determined by ELISA of culture media (48 hrs for IFN-γ and 72 hrs for TGF-β).
# [1] = test system: Compound 1 reference standard (RS) specific T-cells; assay: Inhibition of IL-2 secretion from T-cells of immunized mice after s.c. treatment (ELISA); format: in vivo
# Description: The biological activity was monitored by inhibition of IL-2 secretion from Compound 1 reference standard (RS) specific T-cells following subcutaneous (s.c.) treatment with the lyophilized compound solution, i.e. the drug product (DP), at two concentrations. The results of the treatment are compared to those of treating mice with Compound 1 (RS) in phosphate buffered saline (PBS).
# [2] = treated 50 μg/mouse s.c., activator Compd. 1 RS 5 μg/ml
# [3] = treated 50 μg/mouse s.c., activator Compd. 1 RS 10 μg/ml
# [4] = treated 50 μg/mouse s.c., activator Compd. 1 RS 25 μg/ml
# [5] = treated 50 μg/mouse s.c., activator Compd. 1 RS 50 μg/ml
# [6] = treated 50 μg/mouse s.c., activator Compd. 1 RS 100 μg/ml
# [7] = treated 50 μg/mouse s.c., activator Compd. 1 RS […]
# [8] = treated 200 μg/mouse s.c., activator Compd. 1 RS 5 μg/ml
# [9] = treated 200 μg/mouse s.c., activator Compd. 1 RS 10 μg/ml
# [10] = treated 200 μg/mouse s.c., activator Compd. 1 RS 25 μg/ml
# [11] = treated 200 μg/mouse s.c., activator Compd. 1 RS 50 μg/ml
# [12] = treated 200 μg/mouse s.c., activator Compd. 1 RS 100 μg/ml
substance,measurement,setting,value
H-GYYWSWIRQPPGKGEEWIG-OH [Compound 1],TGF-β secreted level,LN cells,below the detection limit
same,Average inhibition (%) (at the range of 5-100 μg/ml),[1]; treated 50 μg/mouse s.c.,45.6%
same,IL-2 secretion,"[1]; treated 50 μg/mouse s.c., activator Compd. 1 RS 0 μg/ml",BQL
same,IL-2 secretion,"[1]; treated 50 μg/mouse s.c., activator Compd. 1 RS 0.5 μg/ml",9 pg/mL
same,IL-2 secretion,"[1]; treated 50 μg/mouse s.c., activator Compd. 1 RS 1 μg/ml",BQL
same,% inhib. of IL-2 secretion,[1]; [2],55%
same,IL-2 secretion,[1]; [2],9 pg/mL
same,% inhib. of IL-2 secretion,[1]; [3],38%
same,IL-2 secretion,[1]; [3],16 pg/mL
same,% inhib. of IL-2 secretion,[1]; [4],48%
same,IL-2 secretion,[1]; [4],15 pg/mL
same,% inhib. of IL-2 secretion,[1]; [5],47%
same,IL-2 secretion,[1]; [5],21 pg/mL
same,% inhib. of IL-2 secretion,[1]; [6],41%
same,IL-2 secretion,[1]; [6],25 pg/mL
same,% inhib. of IL-2 secretion,[1]; [7],51%
same,IL-2 secretion,[1]; [7],8 pg/mL
same,IL-2 secretion,"[1]; treated 50 μg/mouse s.c., activator Con A […]","6,215 pg/ml"
same,Average inhibition (%) (at the range of 5-100 μg/ml),[1]; treated 200 μg/mouse s.c.,60.4%
same,IL-2 secretion,"[1]; treated 200 μg/mouse s.c., activator Compd. 1 RS 0 μg/ml",BQL
same,IL-2 secretion,"[1]; treated 200 μg/mouse s.c., activator Compd. 1 RS 0.5 μg/ml",10 pg/mL
same,IL-2 secretion,"[1]; treated 200 μg/mouse s.c., activator Compd. 1 RS 1 μg/ml",BQL
same,% inhib. of IL-2 secretion,[1]; [8],60%
same,IL-2 secretion,[1]; [8],8 pg/mL
same,% inhib. of IL-2 secretion,[1]; [9],58%
same,IL-2 secretion,[1]; [9],11 pg/mL
same,% inhib. of IL-2 secretion,[1]; [10],63%
same,IL-2 secretion,[1]; [10],11 pg/mL
same,% inhib. of IL-2 secretion,[1]; [11],62%
same,IL-2 secretion,[1]; [11],15 pg/mL
same,% inhib. of IL-2 secretion,[1]; [12],58%
same,IL-2 secretion,[1]; [12],18 pg/mL
same,IL-2 secretion,"[1]; treated 200 μg/mouse s.c., activator Compd. 1 RS […]",BQL
same,IL-2 secretion,"[1]; treated 200 μg/mouse s.c., activator Con A […]","5,403 pg/ml"
